Each structure is given as a SMILES string. Several values for one entry are separate records, joined by “and”; a condition that tells them apart may be missing. Identical values can stand only once.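 Dose response: 5 concentrations. Exposure: 48 h. Format: 96-well plates. Endpoint: linear interpolation; highest concentration if not reached. At the GI50, growth is halved. TGI is the concentration that stops growth completely.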

Assay in all cases: DTP human tumour cell line panel, 48 h
The subject of assay [1] is NCI-H522 lung.
Assay [2] concerns OVCAR-8 ovarian.
The subject of assay [3] is SK-MEL-5 melanoma.
In assay [4] the test system is CAKI-1 renal.
For assay [5], the system named is SR leukemia.
Assay [6] deals with HCT-116 colon.
Assay [7] has as its system COLO 205 colon.
Assay [8] has as its system MDA-MB-435.
The subject of assay [9] is MCF7 breast.
For assay [10], the system named is PC-3 prostate.

For orientation: TGI means the concentration at which net growth stops. Read a low TGI as greater sensitivity of the cells. `O=C(c1ccc(O)cc1O)C1C(c2ccc(O)cc2)OC(c2ccc(O)cc2)C1C(=O)c1ccc(O)cc1O` (stereo not given): the TGI in assay [1] was 34.3 µM; in [2] it was 56.8 µM; in assay [3], 29.6 µM; in assay [4] it was above 100 µM.
For `Nc1ccc2n[se]nc2c1`, the TGI in [5], in [6], in [2], in assay [3] and in [4] was above 100 µM throughout.
`Cc1ccc(NC(=O)CCc2nc(=S)[nH][nH]2)cc1`: the TGI in assay [1], in [7], in assay [5], in [6], in [2] and in assay [3] was above 100 µM in each case. The same compound registered a TGI in assay [4] above 100 µM.
As for `COC(=O)CCSC(=O)Nc1ccc(N=Nc2ccccc2)cc1`, the TGI was 47.7 µM in assay [7]; above 100 µM in [5]; above 100 µM in assay [6]; above 100 µM in assay [2]; above 100 µM in assay [3]; above 100 µM in assay [4].
By GI50 is commonly meant the concentration that inhibits growth by half. For `COc1ccc(-c2cc(-c3ccc(Nc4nc(Nc5ccccc5)nc(Nc5ccc(Cl)cc5)n4)cc3)nc(N)n2)cc1`, the GI50 is 14.5 µM in [8]; 9.02 µM in [1]; 5.34 µM in assay [9]; 2.29 µM in assay [7]; 5.63 µM in assay [5]; 6.74 µM in [6]. Besides, the GI50 in [2] is 15.1 µM; in [3], 6.55 µM; in assay [4] it was 5.4 µM. In addition, the TGI in [8] was above 50 µM; in assay [1], 27.1 µM; in [9], 21 µM; in assay [7], 16.7 µM; in [5] it was 18.7 µM; in assay [6] it was 16.8 µM. Moreover, the TGI in assay [2] was above 50 µM; in [3], 20.9 µM; in assay [4], 23.3 µM.
As to `COC1=C(N)C(=O)c2nc(-c3nc(C(=O)O)c(C)c(-c4ccc(OC)c(OC)c4O)c3N)ccc2C1=O`, the GI50 was 0.0266 µM and 0.0104 µM in [8]; 0.000527 µM and 0.00336 µM and < 0.01 µM in assay [1]; 0.0139 µM and 0.00357 µM in [6]; 0.0298 µM in assay [10]; 0.00116 µM and 0.0104 µM in assay [3]. The TGI in assay [1] is 0.0214 µM and < 0.0111 µM; in [2] it was 0.00226 µM and 0.022 µM and 0.0194 µM; in assay [10], 0.203 µM and 0.0292 µM and 0.0228 µM.
Take `Cc1nc(N)nc(N)c1CCCCc1ccc(N)cc1`: the TGI in [1] came to 16 µM; in assay [7], 28 µM; in [5], 24.7 µM; in assay [6], 13.4 µM; in assay [2], 20.6 µM; in assay [3], 16.5 µM. This compound also had a TGI in assay [4] of 39.5 µM.
As to `NC1NC=NC2C1N=CN2C1OC(CO)C2[O][Sn][O]C21` (stereo not given), the GI50 in [1], in [7], in assay [6], in assay [2], in assay [3] and in assay [4] was above 100 µM in each case. The TGI in [1], in assay [7], in assay [6], in assay [2], in assay [3] and in assay [4] was above 100 µM throughout.
In the case of `COc1ccccc1NC(=O)C1=C(C)NC(C)=C(C(=O)Nc2ccccc2OC)C1c1ccccc1[N+](=O)[O-]`, the TGI was 26.8 µM in assay [1]; 31.6 µM in assay [7]; 39.6 µM in assay [5]; above 100 µM in assay [6]; 40.5 µM in assay [2]; 74.3 µM in assay [3].
In the case of `COc1cc([N+](=O)[O-])c(OC)cc1-c1nc2sc(C)c(C)n2c1/C(N)=N/C(=N)N`, the GI50 in assay [8] is above 100 µM; in assay [1], above 100 µM; in assay [9] it was 1.53 µM; in [7] it was 13.6 µM; in [6], above 100 µM; in [10], above 100 µM. Moreover, the values for the GI50 in [3] and in [4] were 8.14 µM and above 100 µM, respectively. Further, the TGI in assay [8], in [1], in assay [9], in assay [7], in assay [6] and in assay [10] was above 100 µM each time. Further, the TGI in assay [3] and in assay [4] was above 100 µM each time.
Turning to `COc1cc[c]([Sn]([c]2ccc(OC)cc2)([c]2ccc(OC)cc2)[c]2ccc(OC)cc2)cc1`, the GI50 in assay [7] was 18.3 µM; in assay [6], 8.92 µM; in [2] it was 27.1 µM; in assay [3] it was 12.7 µM; in assay [4], 10.9 µM. Moreover, the TGI in assay [7] is 41.8 µM; in [2], above 100 µM; in [3] it was 28.5 µM; in assay [4] it was 69.2 µM.
As to `NC(=O)c1ccc2c(c1)-c1nc-2nc2[n-]c(nc3nc(nc4[n-]c(n1)c1ccc(C(N)=O)cc41)-c1ccc(C(N)=O)cc1-3)c1ccc(C(N)=O)cc21.[Co+2]`, the GI50 is above 50 µM in assay [1]; above 50 µM in assay [7]; 33.3 µM in [5]; above 50 µM in [6]; above 50 µM in assay [2]; above 50 µM in assay [3]. In addition, the GI50 in assay [4] was above 50 µM. The TGI in [1], in assay [7], in assay [5], in assay [6], in [2] and in assay [3] was above 50 µM throughout. In addition, the TGI in assay [4] was above 50 µM.
`O=C1Nc2ccc(Br)cc2C12CC(c1ccccc1)=NN2` (stereo not given): the GI50 was 3.56 µM in assay [1]; 2.48 µM in assay [9]; 3.79 µM in assay [7]; 2.88 µM in assay [5]; 4.27 µM in [6]; 5.7 µM in assay [2]. In addition, the GI50 in assay [10] is 2.28 µM; in assay [3], 3.2 µM; in assay [4], 2.8 µM. Besides, the TGI in assay [1] was 9.43 µM; in [9], 64.5 µM; in [7] it was 15.2 µM; in assay [5], 19.5 µM; in [6], 17 µM; in assay [2], 39.2 µM. Also, the TGI in assay [10] amounted to 18.4 µM; in [3], 14.1 µM; in assay [4] it was 16.6 µM.

The record behind these values is PubChem BioAssay (NCI).
